Data published in publication PMC8837603, “Lapcin, a potent dual topoisomerase I/II inhibitor discovered by soil metagenome guided total chemical synthesis” (Nature Communications, 2022).

What was measured:
A549 cells = test: cells; type: cell-based, human; details: lung cancer; MTT, 48 h, 37 °C; DMEM + 10% FBS + NEAA; 2,500 cells/well; absorbance 570 nm; n = 3 biologically independent
Description: (§1) An MTT (2-(4,5-dimethylthiazol-2-yl)−2,5-diphenyltetrazolium bromide) assay was used to determine the cytotoxicity of lapcin towards diverse cancer cell lines. Lapcin was dissolved in DMSO to make a 3.2 mg/mL working solution. For each cancer line detailed in Supplementary Table 5, cells at 80-90% confluency were counted and seeded in 96-well, flat bottom microplates and incubated at 37 °C with a 5% CO2 atmosphere. Outer wells were unused to avoid edge effects. After adhering for 24 h, the medium was sterilely aspirated and replaced with 100 µL of fresh medium containing lapcin or a control compound serially diluted at concentrations ranging from 8,000 to 0.00382 ng/mL. After 48 h (37 °C, 5% CO2), the medium was carefully removed and 110 µL of freshly prepared MTT solution (10 µL of 5 mg/mL MTT in PBS (pH 7.4) premixed with 100 µL of complete medium) was added to each well. After 3 h at 37 °C with 5% CO2, 100 µL of solubilization solution (40% DMF, 16% SDS and 2% acetic acid in H2O) was added to each well and precipitated formazan crystals were allowed to dissolve for 4 h. The absorbance of each well was then measured at 570 nm using a Tecan microplate reader.

Colo205 cells = test: cells; type: cell-based, human; details: colon cancer; MTT, 48 h, 37 °C; RPMI-1640 + 10% FBS; 2,500 cells/well; absorbance 570 nm; n = 3 biologically independent
Description: as §1

HCC1806 cells = test: cells; type: cell-based, human; details: breast cancer; MTT, 48 h, 37 °C; RPMI-1640 + 10% FBS; 2,500 cells/well; absorbance 570 nm; n = 3 biologically independent
Description: as §1

HCT116 cells = test: cells; type: cell-based, human; details: colon cancer; MTT, 48 h, 37 °C; DMEM + 10% FBS; 10,000 cells/well; absorbance 570 nm; n = 3 biologically independent
Description: as §1

HEK293 cells = test: cells; type: cell-based, human; details: normal cell; MTT, 48 h, 37 °C; DMEM + 10% FBS; 5, 000 cells/well; absorbance 570 nm; n = 3 biologically independent
Description: as §1

HT29 cells = test: cells; type: cell-based, human; details: colon cancer; MTT, 48 h, 37 °C; DMEM + 10% FBS; 2,500 cells/well; absorbance 570 nm; n = 3 biologically independent
Description: as §1

Hela (Cervical) cells = test: cells; type: cell-based, human; details: cervical cancer; MTT, 48 h, 37 °C; DMEM + 10% FBS; 2,500 cells/well; absorbance 570 nm; n = 3 biologically independent
Description: as §1

MCF 7 cells = test: cells; type: cell-based, human; details: breast cancer; MTT, 48 h, 37 °C; DMEM + 10% FBS; 8,000 cells/well; absorbance 570 nm; n = 3 biologically independent
Description: as §1

NCI-H1299 cells = test: cells; type: cell-based, human; details: lung cancer; MTT, 48 h, 37 °C; RPMI-1640 + 10% FBS; 2,500 cells/well; absorbance 570 nm; n = 3 biologically independent
Description: as §1

NCI-H226 cells = test: cells; type: cell-based, human
Description: as §1

SW480 cells = test: cells; type: cell-based, human; details: colon cancer; MTT, 48 h, 37 °C; DMEM + 10% FBS; 10,000 cells/well; absorbance 570 nm; n = 3 biologically independent
Description: as §1

U2OS (Bone) cells = test: cells; type: cell-based, human
Description: as §1

Human Topo II = target: T1, Human Topo II (Homo sapiens, UniProt P11388); test: Human Topoisomerase II DNA decatenation assay; type: biochemical
T1 construct: purchased TopoGen, USA
Description: The decatenation assay was conducted using a Human Topo II decatenation kit (TopoGen, USA). […] Assays were performed according to the manufacturer’s protocol. Briefly, on ice, 19 µL of master mixture was prepared by adding 4 µL of freshly prepared 5 x assay buffer (0.5 M Tris-HCl pH8.0, 1.50 M NaCl, 100 mM MgCl2, 5 mM Dithiothreitol, 300 µg/mL BSA, 20 mM ATP), 1 µL of 200 ng/µL kDNA and 5 µL of serial diluted assay compounds in 200 µL reaction tubes. 1 µL of fresh diluted topoisomerase II (1U) was then added to each reaction tube. The total reaction volume was adjusted to 20 µL with H2O. These reactions were incubated at 37 °C for 30 min and stopped by addition of 4 µL of 5 x Stop Buffer (TopoGen, USA). Samples were loaded directly onto a 1% (w/v) agarose gel containing 0.5 µg/ml ethidium bromide and separated at 140 v for 1 hour in 0.5% TBE buffer. The intensity of released (decatenated) circular rings was quantified using Analytik Jena image software. All values were normalized to the negative control wells. The intensity of decatenated band was used in the determination of IC50 of tested compounds and the curve was drawn in Prism 9 (9.0.0). All experiments were performed in triplicate (n = 3).

[1] = test system: Wheat germ Topoisomerase I; test: DNA intercalator assay / enzyme concentration dependence, Topo I; type: biochemical; details: unlike known DNA intercalators; supercoil pBR322, 30 min, 37 °C; two independent times
From the text: DNA intercalator assay: A commercial DNA unwinding assay kit (Inspiralis, UK) was used in this study with a slight modification. Ethidium bromide was used as intercalator positive control. The assay contains two steps: the first step is used to determine the minimum concentration of compounds that will inhibit the enzyme activity; the second step is used to determine whether compounds act as intercalator or inhibitor. Ethidium bromide was used as the intercalator positive control and supercoil pBR322 was used as the substrate. The assay mixture was set up on the ice. Briefly, the master mixture was prepared by adding 3 µL of […] wheat germ topoisomerase I assay buffer, 0.5 µL of 1 µg/µL supercoil pBR322, 1.5 uL serial diluted compounds (dissolved in DMSO). H2O was added to a final volume of 29 µL. Finally, 1 µL of 2 U/µL Wheat germ Topoisomerase I was added to the reaction mixture. The reaction was incubated for 30 minutes at 37℃. The reaction was stopped by added 20 µL of H2O, and 50 µL of butanol (water-saturated). The mixture was vortexed vigorously and centrifuged for 1 minute. The lower, aqueous layer was removed and added into a new tubes containing 50 µL STEB buffer and 40 µL of Chloroform/isoamyl alcohol (v:v, 24:1). The mixture was vortexed vigorously for 10 secs and centrifuge for 2 minutes. […]

[2] = test system: Escherichia coli ATCC25922; test: MIC assay, Escherichia coli; type: cell-based; details: LB, 16 h, 37 °C, n = 2
Description: Lapcin was tested for antimicrobial activity against the bacteria and fungi shown in Supplementary Table 4. […] Lapcin was dissolved in sterile DMSO to make a 3.2 mg/mL working solution. Lapcin was diluted across 96-well plates using a 2-fold serial dilution method to give a concentration range of 64 to 0.06 µg/mL in 50 µL of LB broth. A single colony of each test organism was grown in either 5 mL LB (bacteria) or YPD (fungi) medium overnight at 37 °C or 30 °C, respectively. Saturated overnight cultures were diluted 5,000-fold, and then 50 µL of dilute cells were transferred into each well of the assay plates. Finally, each well contains a total volume of 100 µL.

T1 sequence (P11388 whole entry): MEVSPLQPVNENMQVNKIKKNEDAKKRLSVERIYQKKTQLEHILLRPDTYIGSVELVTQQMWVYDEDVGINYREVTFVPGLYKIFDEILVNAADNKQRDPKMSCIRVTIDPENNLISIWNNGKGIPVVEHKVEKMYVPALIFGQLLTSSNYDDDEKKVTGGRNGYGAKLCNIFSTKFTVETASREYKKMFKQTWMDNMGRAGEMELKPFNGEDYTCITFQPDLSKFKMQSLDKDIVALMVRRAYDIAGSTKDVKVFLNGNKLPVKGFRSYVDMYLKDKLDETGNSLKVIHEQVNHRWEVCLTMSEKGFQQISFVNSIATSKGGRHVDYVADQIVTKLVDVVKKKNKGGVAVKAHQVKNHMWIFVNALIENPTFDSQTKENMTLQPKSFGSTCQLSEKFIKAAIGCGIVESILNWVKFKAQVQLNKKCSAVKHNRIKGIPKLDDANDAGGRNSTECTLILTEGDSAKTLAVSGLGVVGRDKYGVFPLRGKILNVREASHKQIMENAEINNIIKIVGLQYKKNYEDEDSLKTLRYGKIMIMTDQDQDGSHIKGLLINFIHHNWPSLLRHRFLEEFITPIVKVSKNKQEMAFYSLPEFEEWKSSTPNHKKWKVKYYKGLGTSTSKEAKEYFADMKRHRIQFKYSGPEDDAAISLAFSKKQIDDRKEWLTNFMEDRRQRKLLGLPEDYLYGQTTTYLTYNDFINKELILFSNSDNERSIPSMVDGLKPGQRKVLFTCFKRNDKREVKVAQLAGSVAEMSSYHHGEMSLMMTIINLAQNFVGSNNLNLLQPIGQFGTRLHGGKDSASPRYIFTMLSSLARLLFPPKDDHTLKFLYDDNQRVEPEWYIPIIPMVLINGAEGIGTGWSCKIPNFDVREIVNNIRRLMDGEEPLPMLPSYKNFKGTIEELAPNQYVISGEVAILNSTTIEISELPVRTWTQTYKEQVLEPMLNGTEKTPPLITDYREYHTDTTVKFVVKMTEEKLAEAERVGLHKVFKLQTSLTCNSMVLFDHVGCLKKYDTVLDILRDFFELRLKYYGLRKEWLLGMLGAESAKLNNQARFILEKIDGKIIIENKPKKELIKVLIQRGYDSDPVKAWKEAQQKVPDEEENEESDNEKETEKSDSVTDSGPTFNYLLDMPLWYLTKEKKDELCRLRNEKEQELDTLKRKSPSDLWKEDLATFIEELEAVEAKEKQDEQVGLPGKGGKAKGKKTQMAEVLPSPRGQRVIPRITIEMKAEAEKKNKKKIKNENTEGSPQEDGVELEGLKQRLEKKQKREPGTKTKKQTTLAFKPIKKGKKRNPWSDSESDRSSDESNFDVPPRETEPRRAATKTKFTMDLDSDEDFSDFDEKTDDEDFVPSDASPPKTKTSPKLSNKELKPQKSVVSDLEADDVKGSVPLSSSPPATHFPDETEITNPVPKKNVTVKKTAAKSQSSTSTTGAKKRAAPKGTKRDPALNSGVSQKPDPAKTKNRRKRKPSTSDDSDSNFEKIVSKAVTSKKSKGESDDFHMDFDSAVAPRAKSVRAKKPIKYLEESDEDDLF

Compound: CCCCCCCCCCCC(O)CC(=O)N[C@@H](C)C(=O)N[C@@H](CO)C(=O)N[C@@H](C)C(=O)Nc1ccc(-c2nc(-c3nc(C(=O)N[C@@H](CC(N)=O)C(=O)Nc4ccc(C(=O)Nc5ccc(C(=O)Nc6ccc(C(=O)O)cc6)c(O)c5OC(C)C)cc4)cs3)cs2)cc1 (stereo partly drawn) [Lapcin, 4-(4-(4-((2S)-4-amino-2-(2'-(4-((2S)-2-((2S)-3-hydroxy-2-((2S)-2-(3-hydroxytetradecanamido)propanamido)propanamido)propanamido)phenyl)-[2,4'-bithiazole]-4-carboxamido)-4-oxobutanamido)benzamido)-2-hydroxy-3-isopropoxybenzamido)benzoic acid]
- IC50 (A549 cells): 2.66 nM
- IC50 (Colo205 cells): 0.504 nM
- IC50 (HCC1806 cells): 212 nM
- IC50 (HCT116 cells): 923 nM
- IC50 (HEK293 cells): 48.4 nM
- IC50 (HT29 cells): 0.516 nM
- IC50 (Hela (Cervical) cells): 0.986 nM
- IC50 (MCF 7 cells): 35.1 nM
- IC50 (NCI-H1299 cells): 0.0168 nM
- potency vs etoposide, NCI-H226 (NCI-H226 cells; compared with etoposide): essentially equipotent
- IC50 (NCI-H226 cells; lung cancer, MTT, 48 h, 37 °C, RPMI-1640 + 10% FBS, 10,000 cells/well, absorbance 570 nm, n = 3 biologically independent): 241 nM
- IC50 (SW480 cells): 37.2 nM
- IC50 (U2OS (Bone) cells; bone cancer, MTT, 48 h, 37 °C, DMEM + 10% FBS + NEAA, 2,500 cells/well, absorbance 570 nm, n = 3 biologically independent): 1.29 nM
- activity against U2OS in words (U2OS (Bone) cells; human bone osteosarcoma epithelial cell line U2OS): retained potent activity
- fold more potent than etoposide, topoisomerase II (Human Topo II): ~15 times
- IC50 (Human Topo II; kDNA, 1 U enzyme, 30 min, 37 °C, gel, ethidium bromide, n = 3): 7530 nM
- dependence of activity on enzyme concentration, Topo I [1]: strong dependence on enzyme concentration
- MIC, Escherichia coli [2]: > 32 mg/L
